In ChEMBL document CHEMBL1142045, “Carbonic anhydrase inhibitors. Interaction of isozymes I, II, IV, V, and IX with organic phosphates and phosphonates” (Bioorg Med Chem Lett, 2005):

Assays:
[1] = biological target: Carbonic anhydrase 1 (Homo sapiens) (UniProt P00915); assay: Activation constant towards human cytosolic carbonic anhydrase I; Activator
[2] = biological target: Carbonic anhydrase 5A, mitochondrial (Homo sapiens, UniProt P35218); assay: Binding affinity towards recombinant human mitochondrial carbonic anhydrase V
Sequence of Carbonic anhydrase 5A, mitochondrial (P35218 whole entry): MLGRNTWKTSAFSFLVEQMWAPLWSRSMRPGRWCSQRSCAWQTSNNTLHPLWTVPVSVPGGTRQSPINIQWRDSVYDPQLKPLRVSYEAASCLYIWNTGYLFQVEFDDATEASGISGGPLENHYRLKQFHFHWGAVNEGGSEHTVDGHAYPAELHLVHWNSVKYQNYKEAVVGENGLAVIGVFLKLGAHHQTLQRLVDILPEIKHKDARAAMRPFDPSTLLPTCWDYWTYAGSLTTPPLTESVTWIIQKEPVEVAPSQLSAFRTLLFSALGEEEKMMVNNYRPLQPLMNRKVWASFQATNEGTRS

Carbonic anhydrase 9 = Carbonic anhydrase 9 (Homo sapiens, UniProt Q16790); assay: Binding affinity owards recombinant human transmembrane carbonic anhydrase IX
Carbonic anhydrase 4 = Carbonic anhydrase 4 (Homo sapiens, UniProt P22748); assay: Binding affinity towards human membrane associated carbonic anhydrase IV
Sequence of Carbonic anhydrase 4 (P22748 whole entry): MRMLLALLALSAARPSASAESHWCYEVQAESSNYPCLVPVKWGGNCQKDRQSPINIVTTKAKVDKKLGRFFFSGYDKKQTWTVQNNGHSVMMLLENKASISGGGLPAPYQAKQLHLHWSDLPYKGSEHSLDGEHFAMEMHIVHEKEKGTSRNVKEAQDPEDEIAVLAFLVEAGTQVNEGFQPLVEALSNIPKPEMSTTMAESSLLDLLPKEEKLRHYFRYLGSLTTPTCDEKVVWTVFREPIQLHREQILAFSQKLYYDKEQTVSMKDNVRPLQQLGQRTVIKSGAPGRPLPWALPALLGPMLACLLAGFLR

Carbonic anhydrase 2 = Carbonic anhydrase 2 (Homo sapiens, UniProt P00918); assay: Binding affinity towards human cytosolic carbonic anhydrase II

Sequence of Carbonic anhydrase 1 (Homo sapiens) (P00915 2-261 limits assumed): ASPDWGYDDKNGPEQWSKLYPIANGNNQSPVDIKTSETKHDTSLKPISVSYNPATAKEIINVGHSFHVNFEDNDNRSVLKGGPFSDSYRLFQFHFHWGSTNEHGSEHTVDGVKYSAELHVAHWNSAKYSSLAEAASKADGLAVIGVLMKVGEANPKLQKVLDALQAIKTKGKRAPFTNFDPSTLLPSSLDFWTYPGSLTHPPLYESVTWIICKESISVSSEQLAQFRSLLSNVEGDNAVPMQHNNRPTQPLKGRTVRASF

Structure (SMILES) | KA [1] [mM] | Ki [2] [µM] | Ki (Carbonic anhydrase 9) [µM] | Ki (Carbonic anhydrase 4) [µM] | Ki (Carbonic anhydrase 2) [µM]
CC(OP(=O)(O)O)C(N)C(=O)O (configuration not stated) | 0.5 | 850 | 1230 | 3180 | 1080
N[C@@H](COP(=O)(O)O)C(=O)O [DEXFOSFOSERINE] | 0.1 | 360 | 920 | 4260 | 420
O=C(O)P(=O)(O)O [FOSCARNET] | 0.012 | 41700 | – | – | –
O=P(O)(O)CP(=O)(O)O [MEDRONIC ACID] | 0.2 | 730 | 860 | 5340 | 1250
O=C(O)C[C@H](NC(=O)CP(=O)(O)O)C(=O)O [PALA] | 0.1 | 370 | 2250 | 0.079 | 7.8
O=P(O)(O)c1ccccc1 [PHENYLPHOSPHONIC ACID] | 0.0001 | 90 | 2210 | 5.4 | 0.099
